Source: US11628198B2, “Methods for prevention and treatment of acute renal injury” (Cornell University, priority 2008, dated 2023)
“And” between values parts separate entries of the source, which are not always exact repeats. Equal values may be shown once.

Columns and labels:
Format in all cases: in vivo, rat
[1] = system: CIN in glycerol-induced rhabdomyolysis animal model; assay: CIN in glycerol-induced rhabdomyolysis model, Experiment 1
Method: In this model, SD rats with body weight of 300-400 g were dehydrated for 24 h followed by i.m. injection of 25% glycerol solution (v/v) at the dose of 10 ml/kg. Twenty-four hours (24 h) later, the rats were grouped and subjected to a contrast induced nephropathy study protocol as detailed in FIG. 20. The effects of SS-31 on ARI can be examined by comparing the renal functions in animals from group C with those from group B. Samples were analyzed by students t-test and differences were considered significant at p<0.05.
Renal function: Renal function was assessed by determining serum and urinary creatinine using Jiancheng Cr kit (Nanjing, P.R.C) at baseline, 24 h after dehydration and 48 h post the contrast dye administration. The creatinine clearance was calculated based on the Scr, Ucr and urinary volume. Urinary microalbumin concentration was determined by a competition ELISA assay.

[2] = system: ARI caused by ureteral obstruction (UUO); assay: 14-day UUO model: immunohistochemistry and TUNEL
Method: Sprague-Dawley rats underwent unilateral ureteral ligation (UUO) with 4-0 silk suture through a midline abdominal incision under sterile conditions. Ureteral obstruction was carried out by ligating the left ureter at the end of lower ureter, just above the ureterovesical junction.
SS-31 (1 mg/kg or 3 mg/kg; n=8) was administered intraperitoneally, one day prior to UUO and continuing for 14 days. A separate group of animals was given saline, as a vehicle control (n=16).
Immunohistochemical Analysis: Immunohistochemical staining for macrophages was carried out using a monoclonal antibody to ED-1 (Serotec) as previously described. Macrophages were counted in 10 high-power fields (×400) by two different independent investigators in a blinded fashion. The TUNEL assay was performed as described in Example 1. The presence of fibroblasts was examined using immunohistochemistry, as described in Example 1. The antibody utilized was DAKO #S100-A4 (1:100 dilution). The S100-A4 antigen is also known as FSP-1 (fibroblast specific protein). Antigen was retrieved by incubating cells with Proteinase K for 20 min in an oven. The remaining immunoperoxidase protocol was carried out according to routine procedures. Staining for S100-A4 was found in spindle-shaped interstitial cells, and also in cells which were round, and were identified as inflammatory cells by the pathologist. Only spindle-shaped cells were included in the counts. […] 8-OH dG staining was carried using Proteinase K for antigen retrieval. The antibody used was from the Japan Institute Control of Aging, and was used at a dilution of 1:200-1:500.

[3] = system: contrast induced nephropathy in diabetic animal model; assay: CIN in diabetic (HFD/STZ) rats with iohexol, Experiment 3; conditions: individual rats of Group C
Method: In this experiment, 20 SD rats were fed with high fat diet for 6 weeks, followed by the injection with low dose streptozotocin (35 mg/kg). After 15 more weeks, the rats were subjected to contrast induced nephropathy study. In addition, we included a normal control group was included in which 9 rats from the same batch on regular chow diet were subjected to the same protocol.
[…] The creatinine clearance was calculated based on the Scr, Ucr and urinary volume. Samples were analyzed by students t-test and differences were considered significant at p<0.05.

[4] = system: ARI caused by ischemia-reperfusion (I/R); assay: I/R model: TUNEL assay for apoptosis; conditions: 30 min ischemia and 24 h reperfusion; 3 mg/kg
Method: Sprague Dawley rats (250˜300 g) were assigned to four groups: (1) sham surgery group without I/R; (2) I/R+saline vehicle treatment; (3) I/R+SS-20 treatment; (4) I/R+SS-31 treatment. Each experimental group consisted of 8 rats. SS-20 and SS-31 (3 mg/kg, dissolved in saline) were administered to rats 30 min before ischemia and immediately before onset of reperfusion. The control rats were given saline alone on the same schedule.
Rats were anesthetized with a mixture of ketamine (90 mg/kg, i.p.) and xylazine (4 mg/kg, i.p.). The left renal vascular pedicle was occluded temporarily using a micro-clamp for 30 or 45 min. At the end of the ischemic period, reperfusion was established by removing of the clamp. At that time, the contralateral right kidney was removed. After 24 h reperfusion, animals were sacrificed and blood samples were obtained by cardiac puncture. Renal function was determined by blood urea nitrogen (BUN) and serum creatinine (BioAssay Systems DIUR-500 and DICT-500).
TUNEL Assay for Apoptosis: Renal tissue sections were deparaffinized and rehydrated by xylenes, graded alcohol series and deionized H2O, and then incubated in 20 μg/ml proteinase K for 20 min at RT. In situ cell death detection POD kit (Roche, IN, USA) was used according to the manufacturer's instructions. […]

D-Arg-2′6′Dmt-Lys-Phe-NH2 [SS-31] was tested, and the urinary microalbumin level ([1]; T0, after 24 h dehydration, no peptide treatment at this time point) was 757.7±462.9 μg/24 h, the total albuminuria ([1]; T2, compared to the vehicle treated group) was “decreased significantly” and the “PAS staining of kidney” value ([1]; glycerin, dye) was “intact brush borders, normal glomeruli and minimum protein cast in the tubular cells”. The “fibroblast infiltration (FSP-1) in the OK” value ([2]; 1 mg/kg) was 43.4 % of control, the “tubular apoptosis (TUNEL)” value ([2]; 1 mg/kg) was 5.1±0.5 cells per HPF and the “tubular proliferation (PCNA), increase” value ([2]; 1 mg/kg) was 2 fold. For the same substance, the “fibroblast infiltration (FSP-1) in the OK” value ([2]; 3 mg/kg) was 28.0 % of the untreated OK, the “renal tubular apoptosis (TUNEL)” value ([2]; 3 mg/kg) was 3.0±0.3 apoptotic cells/HPF and the “tubular proliferation (PCNA), increase” value ([2]; 3 mg/kg) was 3.5 fold. For the same substance, the “macrophage infiltration into the OK (ED-1)” value ([2]; 1 and 3 mg/kg) was “significantly decreased macrophage infiltration”, the “8-OH dG positive cells/HPF” value ([2]; obstructed kidney) was “significantly reduced” and the “Scr T22h” value ([3]; T22h post dye) was 25 μM (2×) and 26 μM and 24 μM and 27 μM and 28 μM and 30 μM and 35 μM and 19 μM. The “Scr % change T22” value ([3]; T22h vs Tb) was 0% and 4% and −11% and 9% and −7% and 17% and 20% and 40% and −34%, the “Scr Tb” value ([3]; baseline) was 25 μM (4×) and 27 μM and 23 μM and 29 μM (2×) and 24 μM and the “TUNEL-positive cells in the medulla (tubular cell apoptosis)” value [4] was “significantly prevented TUNEL-positive cells”.
